Results published in patent US8586603B2, “Aminotetraline derivatives” (priority 2009, dated 2013).
pEC50, pKi: −log10 of the molar value.

Columns and labels:
[1] = target: T1, human dopamine receptor subtype hD3 (Homo sapiens, UniProt P35462); assay: Receptor binding assay, [3H]spiperone competition, CHO cell membranes; details: for pKi: means of 2-8 individual experiments each done as triplicate; for selectivity ratio hD3: vs p5-HT1a
T1 construct: expressed in transfected cells; host or cells: CHO
T1 sequence (P35462 whole entry): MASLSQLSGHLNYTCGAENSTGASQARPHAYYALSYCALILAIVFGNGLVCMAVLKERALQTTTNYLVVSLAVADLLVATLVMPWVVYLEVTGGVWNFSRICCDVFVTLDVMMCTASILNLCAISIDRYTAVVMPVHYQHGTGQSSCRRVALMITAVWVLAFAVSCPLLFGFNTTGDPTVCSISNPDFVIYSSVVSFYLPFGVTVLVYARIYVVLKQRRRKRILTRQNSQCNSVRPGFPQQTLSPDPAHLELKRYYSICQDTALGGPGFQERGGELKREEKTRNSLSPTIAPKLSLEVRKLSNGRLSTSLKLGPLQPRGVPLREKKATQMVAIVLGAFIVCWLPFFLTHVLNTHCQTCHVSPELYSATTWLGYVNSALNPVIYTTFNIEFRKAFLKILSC
Protocol: (§1) Receptor binding data were determined when performing competition binding assays with membrane preparations of cloned cells (stably transfected Chinese Hamster Ovary cells (CHO)) expressing the human receptors and the following radioligands: [^3H]spiperone at the human dopamine receptor subtypes hD2long, hD2short, D3, and hD4.4.
(§2) Selectivity ratios were calculated by division of the Ki values of the various compounds at the respective receptors through the Ki values at the 5HT1a receptor.

[2] = target: T2, human dopamine receptor subtype hD2long (Homo sapiens, UniProt P14416); assay: as above; details: for pKi: means of 2-8 individual experiments each done as triplicate; for selectivity ratio hD2long: vs p5-HT1a
T2 construct: expressed in transfected cells; host or cells: CHO
T2 sequence (P14416 whole entry): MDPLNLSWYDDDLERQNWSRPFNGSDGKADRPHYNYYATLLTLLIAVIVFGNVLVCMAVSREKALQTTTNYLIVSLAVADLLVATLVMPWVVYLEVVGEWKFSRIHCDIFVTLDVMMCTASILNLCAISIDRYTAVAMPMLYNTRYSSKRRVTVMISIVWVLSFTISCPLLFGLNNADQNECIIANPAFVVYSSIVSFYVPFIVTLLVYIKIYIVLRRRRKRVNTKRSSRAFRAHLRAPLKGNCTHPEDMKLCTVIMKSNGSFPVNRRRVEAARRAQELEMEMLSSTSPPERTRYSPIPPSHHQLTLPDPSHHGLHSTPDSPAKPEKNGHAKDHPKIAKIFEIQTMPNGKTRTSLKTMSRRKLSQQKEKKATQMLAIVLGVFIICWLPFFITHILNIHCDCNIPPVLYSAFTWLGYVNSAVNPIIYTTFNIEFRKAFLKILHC
Protocol: as §1, §2

[3] = target: T3, human dopamine receptor subtype hD2short (Homo sapiens, UniProt P14416); assay: as above; details: for pKi: means of 2-8 individual experiments each done as triplicate; for selectivity ratio hD2short: vs p5-HT1a
T3 construct: expressed in transfected cells; host or cells: CHO
T3 sequence (P14416 1-414 isoform P14416-2): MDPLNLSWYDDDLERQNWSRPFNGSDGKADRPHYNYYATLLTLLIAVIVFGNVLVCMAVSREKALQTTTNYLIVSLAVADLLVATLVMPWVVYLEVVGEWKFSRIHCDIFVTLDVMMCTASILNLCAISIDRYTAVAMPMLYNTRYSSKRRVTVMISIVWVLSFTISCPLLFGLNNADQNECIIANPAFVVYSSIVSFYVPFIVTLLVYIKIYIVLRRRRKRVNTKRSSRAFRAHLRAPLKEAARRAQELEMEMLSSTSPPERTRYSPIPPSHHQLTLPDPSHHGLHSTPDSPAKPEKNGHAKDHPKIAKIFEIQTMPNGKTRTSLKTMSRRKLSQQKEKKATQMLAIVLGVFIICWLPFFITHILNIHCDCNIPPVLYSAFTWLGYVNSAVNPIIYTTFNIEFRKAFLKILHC
Protocol: as §1, §2

[4] = target: T4, porcine striatal pD1 dopamine receptor (Sus scrofa, UniProt P50130); assay: Receptor binding assay, [3H]SCH 23390 competition, porcine striatal membranes; details: for pKi: means of 2-8 individual experiments each done as triplicate; for selectivity ratio pD1: vs p5-HT1a
T4 construct: membrane homogenates prepared from porcine striatal or cortical tissue; from tissue; host or cells: porcine striatum
T4 sequence (P50130 whole entry): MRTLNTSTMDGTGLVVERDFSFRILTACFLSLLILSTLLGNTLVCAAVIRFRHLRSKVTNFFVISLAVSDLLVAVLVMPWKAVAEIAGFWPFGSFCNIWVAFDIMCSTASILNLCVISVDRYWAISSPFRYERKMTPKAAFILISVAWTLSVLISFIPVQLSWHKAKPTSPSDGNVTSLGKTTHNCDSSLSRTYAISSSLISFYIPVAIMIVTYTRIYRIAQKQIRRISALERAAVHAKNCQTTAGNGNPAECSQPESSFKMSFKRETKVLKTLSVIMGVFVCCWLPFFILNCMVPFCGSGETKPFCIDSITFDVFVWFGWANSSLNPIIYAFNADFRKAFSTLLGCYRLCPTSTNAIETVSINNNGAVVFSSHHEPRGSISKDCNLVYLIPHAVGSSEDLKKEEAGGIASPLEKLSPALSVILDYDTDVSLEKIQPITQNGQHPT

[5] = tested on: porcine cortical pα1 adrenergic receptor; assay: Receptor binding assay, [3H]prazosin competition, porcine cortical membranes; details: vs p5-HT1a
[6] = target: T5, porcine cortical pα1 adrenergic receptor; assay: as above; details: means of 2-8 individual experiments each done as triplicate
T5 construct: Ki pα1; other: means of 2-8 individual experiments each done as triplicate

[7] = target: T6, human dopamine receptor subtype hD4.4 (Homo sapiens, UniProt P21917); assay: Receptor binding assay, [3H]spiperone competition, CHO cell membranes; details: for pKi: means of 2-8 individual experiments each done as triplicate; for selectivity ratio hD4.4: vs p5-HT1a
T6 construct: expressed in transfected cells; host or cells: CHO
T6 sequence (P21917 1-419): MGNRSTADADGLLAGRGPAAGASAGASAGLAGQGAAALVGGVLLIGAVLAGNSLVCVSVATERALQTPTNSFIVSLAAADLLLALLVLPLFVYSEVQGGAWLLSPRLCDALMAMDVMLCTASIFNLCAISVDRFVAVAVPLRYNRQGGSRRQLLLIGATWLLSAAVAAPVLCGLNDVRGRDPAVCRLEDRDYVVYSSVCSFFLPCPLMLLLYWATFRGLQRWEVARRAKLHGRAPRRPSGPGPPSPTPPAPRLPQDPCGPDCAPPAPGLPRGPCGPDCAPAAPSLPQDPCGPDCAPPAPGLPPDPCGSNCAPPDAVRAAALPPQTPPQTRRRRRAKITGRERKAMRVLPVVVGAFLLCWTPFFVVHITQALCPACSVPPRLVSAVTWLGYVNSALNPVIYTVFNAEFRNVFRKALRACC
Protocol: Receptor binding data were determined when performing competition binding assays with membrane preparations of cloned cells (stably transfected Chinese Hamster Ovary cells (CHO)) expressing the human receptors and the following radioligands: [^3H]spiperone at the human dopamine receptor subtypes hD2long, hD2short, D3, and hD4.4. […].
as §2

[8] = target: T7, porcine cortical p5-HT2 serotonin receptor (Sus scrofa, UniProt P50129); assay: Receptor binding assay, [3H]ketanserin competition, porcine cortical membranes; details: for pKi: means of 2-8 individual experiments each done as triplicate; for selectivity ratio p5-HT2: vs p5-HT1a
T7 construct: membrane homogenates prepared from porcine striatal or cortical tissue; from tissue; host or cells: porcine cortex
T7 sequence (P50129 whole entry): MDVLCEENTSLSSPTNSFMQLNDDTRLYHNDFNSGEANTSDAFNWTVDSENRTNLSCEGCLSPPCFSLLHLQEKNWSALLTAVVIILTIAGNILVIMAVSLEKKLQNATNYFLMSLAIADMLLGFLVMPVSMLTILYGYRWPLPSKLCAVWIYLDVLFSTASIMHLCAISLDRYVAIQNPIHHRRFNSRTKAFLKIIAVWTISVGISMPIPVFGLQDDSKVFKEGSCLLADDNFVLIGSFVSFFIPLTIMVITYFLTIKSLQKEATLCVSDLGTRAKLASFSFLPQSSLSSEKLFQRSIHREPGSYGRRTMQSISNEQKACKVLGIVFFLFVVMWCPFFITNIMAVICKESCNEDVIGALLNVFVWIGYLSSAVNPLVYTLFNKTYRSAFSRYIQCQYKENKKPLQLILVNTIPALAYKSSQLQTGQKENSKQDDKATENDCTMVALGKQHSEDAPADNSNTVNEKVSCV

[9] = target: T8, porcine cortical p5-HT1a serotonin receptor (Sus scrofa, UniProt A0A4X1UTF5); assay: Receptor binding assay, [3H]WAY100635 competition, porcine cortical membranes; details: for pKi: means of 2-8 individual experiments each done as triplicate; for selectivity ratio p5-HT1a: reference receptor of the ratio (=1)
T8 construct: membrane homogenates prepared from porcine striatal or cortical tissue; from tissue; host or cells: porcine cortex
T8 sequence (A0A4X1UTF5 1-422): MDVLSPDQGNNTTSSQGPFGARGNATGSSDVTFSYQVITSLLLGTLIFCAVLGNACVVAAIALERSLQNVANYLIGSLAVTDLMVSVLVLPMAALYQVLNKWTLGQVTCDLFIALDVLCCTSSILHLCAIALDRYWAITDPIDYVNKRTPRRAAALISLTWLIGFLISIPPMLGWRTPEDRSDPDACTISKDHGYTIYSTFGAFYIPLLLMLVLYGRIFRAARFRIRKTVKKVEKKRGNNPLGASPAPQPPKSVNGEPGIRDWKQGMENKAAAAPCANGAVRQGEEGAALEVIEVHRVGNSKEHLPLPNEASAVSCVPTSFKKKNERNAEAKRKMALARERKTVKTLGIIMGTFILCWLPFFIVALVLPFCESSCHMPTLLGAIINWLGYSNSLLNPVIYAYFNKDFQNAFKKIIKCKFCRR

human 5-HT1a receptor = target: T9, human 5-HT1a receptor (Homo sapiens, UniProt P08908); assay: [35S]GTPγS functional assay; type: biochemical
T9 construct: expressed in transfected cells
T9 sequence (P08908 1-422): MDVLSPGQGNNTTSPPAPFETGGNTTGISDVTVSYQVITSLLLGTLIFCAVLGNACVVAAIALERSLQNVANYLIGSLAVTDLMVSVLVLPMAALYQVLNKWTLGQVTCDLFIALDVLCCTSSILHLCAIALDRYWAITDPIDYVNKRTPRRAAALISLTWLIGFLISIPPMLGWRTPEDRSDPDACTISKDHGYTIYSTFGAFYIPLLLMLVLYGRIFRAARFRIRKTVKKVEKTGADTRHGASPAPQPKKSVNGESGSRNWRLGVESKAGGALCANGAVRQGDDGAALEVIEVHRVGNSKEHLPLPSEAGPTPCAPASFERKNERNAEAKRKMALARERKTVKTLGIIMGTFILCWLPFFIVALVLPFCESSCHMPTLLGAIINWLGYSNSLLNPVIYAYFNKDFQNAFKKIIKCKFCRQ
Protocol: Specific binding of [^35S]GTPγS is stimulated by activation of the stably expressed human 5-HT1a receptor in a dose-dependent way by agonists for this GPCR and is determined by measuring the radioactive label of the membrane. Non-linear regression analysis of the resulting dose-response curves yields the EC50 value in [nM] representing the half maximal concentration which is necessary to activate the receptor completely.

Molecule	pKi [1]	selectivity ratio hD3 [1]	pKi [2]	selectivity ratio hD2long [2]	pKi [3]	selectivity ratio hD2short [3]	pKi [4]	selectivity ratio pD1 [4]	selectivity ratio pα1 [5]	pKi [6]	pKi [7]	selectivity ratio hD4.4 [7]	pKi [8]	selectivity ratio p5-HT2 [8]	pKi [9]	selectivity ratio p5-HT1a [9]	pEC50 (human 5-HT1a receptor; mean values of 2-8 individual experiments)	Emax (human 5-HT1a receptor; read-out: intrinsic activity [% rel. to serotonin]) [%]
N-(2-Adamantylethyl)-N-(8-methoxytetralin-2-yl)-N-propylamine [Compound 10]	6.59	4.0	6.42	5.8	6.72	2.9	4.92	180	75	5.31	5.74	28	4.85	220	7.19	1		
CCCN(CCc1cc2ccc1CCc1ccc(cc1)CC2)C1CCc2cccc(OC)c2C1 (centres unmarked) [Compound 14, N-(8-Methoxytetralin-2-yl)-N-propyl-N-[2-([2.2]paracyclophan-4-yl)ethyl]-amine]	7.48	0.66	7.32	0.96	7.46	0.70	5.72	38	5.6	6.55	6.96	2.2	5.14	150	7.30	1		
CCCN(CCC)C1CCc2cccc(O)c2C1 (stereo not drawn) [R-(+)-8-OH-DPAT, reference compound]							5.48			6.60	6.68		5.68		8.92			
CCCN(CCc1cccs1)C1CCc2cccc(OC)c2C1 (centres unmarked) [Compound 2, N-(8-Methoxytetralin-2-yl)-N-propyl-N-[2-(2-thienyl)ethyl]amine]	7.24		6.80		6.41		5.17			6.70	6.41		4.92		8.54		8.20	91
CCCN(CCc1cccs1)[C@H]1CCc2cccc(O)c2C1 [Compound 1b, (S)—N-(8-Hydroxytetralin-2-yl)-N-propyl-N-[2-(2-thienyl)ethyl]amine]	7.31	26	6.28	290	6.54	160	5.27	3 000	110	6.70	6.16	380	5.26	3 100	8.74	1		
N-(2-Ferrocenylethyl)-N-(8-methoxytetralin-2-yl)-N-propylamine [Compound 12]	7.96		7.42		7.77		5.59			7.04	8.46		5.66		8.74			
N-(2-Ferrocenylethyl)-N-(8-hydroxytetralin-2-yl)-N-propylamine [Compound 11]	7.28		7.47		7.80		5.51			6.77	8.13		6.03		9.49			
CCCN(CCc1cc(C)ccc1C)C1CCc2cccc(OC)c2C1 (centres unmarked) [Compound 8, N-(8-Methoxytetralin-2-yl)-N-propyl-N-[2-(2,5-dimethyl)phenylethyl]amine]	6.96		6.52		6.74		5.21			6.29	6.03		5.36		7.62			
CCCN(CCc1cccs1)[C@H]1CCc2cccc(OC)c2C1 [Compound 2b, (S)—N-(8-Methoxytetralin-2-yl)-N-propyl-N-[2-(2-thienyl)ethyl]amine]	7.49		7.07		7.24		5.48			6.85	6.12		5.41		8.17			
CCCN(CCc1cc2ccc1CCc1ccc(cc1)CC2)C1CCc2cccc(O)c2C1 (centres unmarked) [Compound 13, N-(8-Hydroxytetralin-2-yl)-N-[2-([2.2]paracyclophan-4-yl)ethyl]-N-propylamine]	6.77	11	6.00	66	6.19	43	5.46	230	62	6.03	7.06	5.8	5.68	140	7.82	1		
CCCN(CCc1ccc(OC)cc1)C1CCc2cccc(OC)c2C1 (centres unmarked) [Compound 6, N-[2-(4-Methoxyphenyl)ethyl]-N-(8-methoxytetralin-2-yl)-N-propylamine]	6.96		6.47		6.59		5.02			6.64	6.33		5.31		8.26			
